What all share (type): functional
Common to all, as to conditions: read-out: GI

Assay [1] concerns Fusarium graminearum. The experiment in a line: Fungicidal activity against Fusarium graminearum assessed as growth inhibition at 50 ppm after 48 hr relative to untreated control.
Assay [2] relates to Gaeumannomyces graminis. Kind of assay: Fungicidal activity against Gaeumannomyces graminis assessed as growth inhibition at 50 ppm after 48 hr relative to untreated control.
For assay [3], the system named is Pythium aphanidermatum. Kind of assay: Fungicidal activity against Pythium aphanidermatum assessed as growth inhibition at 50 ppm after 48 hr relative to untreated control.
For assay [4], the system named is Pyricularia oryzae. Kind of assay: Fungicidal activity against Magnaporthe oryzae assessed as growth inhibition at 50 ppm after 48 hr relative to untreated control.
Assay [5] has as its system Botrytis cinerea. The experiment in a line: Fungicidal activity against Botryotinia fuckeliana assessed as growth inhibition at 50 ppm after 48 hr relative to untreated control.
In assay [6] the test system is Aspergillus niger. Kind of assay: Fungicidal activity against Aspergillus niger assessed as growth inhibition at 50 ppm after 48 hr relative to untreated control.
Assay [7] has as its system Pleurotus ostreatus. The experiment in a line: Fungicidal activity against Pleurotus ostreatus assessed as growth inhibition at 50 ppm after 48 hr relative to untreated control.

Our source for the inhibition of growth values is ChEMBL document CHEMBL3045092, “Synthesis and Fungicidal Activity of 2-Imino-3-(4-arylthiazol-2-yl)-thiazolidin-4-ones and Their 5-Arylidene Derivatives” (2000).

In the case of `N=C1S/C(=C\c2cccc([N+](=O)[O-])c2)C(=O)N1c1nc(-c2ccccc2)cs1`, the inhibition of growth at 50 ppm in assay [1] is 20.6%; in assay [2], 0%; in assay [3], 25%; in assay [4], 3.2%; in assay [5], 0%; in assay [6] it was 49.7%. Besides, the inhibition of growth at 50 ppm in assay [7] came to 5.9%.
With `N=C1SCC(=O)N1c1nc(-c2cc(F)c(Cl)cc2Cl)cs1`, the inhibition of growth at 50 ppm was determined as 38.8% in assay [1]; 91.3% in assay [2]; 12.5% in assay [3]; 76.3% in assay [4]; 38.2% in assay [5]; 58.8% in assay [6]. The inhibition of growth at 50 ppm in assay [7] was 95%.
On to `N=C1S/C(=C\c2ccccc2Cl)C(=O)N1c1nc(-c2ccccc2)cs1`, for which the inhibition of growth at 50 ppm in assay [1] was found to be 37.4%; in assay [2], 0%; in assay [3], 17.2%; in assay [4] it was 0%; in assay [5], 27.5%; in assay [6], 23.6%. Besides, in assay [7], the inhibition of growth at 50 ppm worked out at 0%.
Turning to `N=C1S/C(=C\c2cccc([N+](=O)[O-])c2)C(=O)N1c1nc(-c2cc(F)c(Cl)cc2Cl)cs1`, the inhibition of growth at 50 ppm worked out at 45.4% in assay [1]; 0% in assay [2]; 33.8% in assay [3]; 11.7% in assay [4]; 24.7% in assay [5]; 69.3% in assay [6]. Also, the inhibition of growth at 50 ppm in assay [7] is 32.6%.
Consider `N=C1SCC(=O)N1c1nc(-c2ccccc2)cs1`, for which the inhibition of growth at 50 ppm in assay [1] worked out at 21.1%; in assay [2], 60%; in assay [3], 8.8%; in assay [4] it was 58.8%; in assay [5], 3.5%; in assay [6], 54.3%. In addition, the inhibition of growth at 50 ppm in assay [7] stood at 82.6%.
`N=C1S/C(=C\c2ccccc2[N+](=O)[O-])C(=O)N1c1nc(-c2ccc(Cl)cc2)cs1`: the inhibition of growth at 50 ppm in assay [1] stood at 58.8%; in assay [2] it was 0%; in assay [3], 12.5%; in assay [4] it was 14.8%; in assay [5], 66.7%; in assay [6], 60.8%. Further, the inhibition of growth at 50 ppm in assay [7] was determined as 84.8%.
In the case of `N=C1S/C(=C\c2ccccc2Cl)C(=O)N1c1nc(-c2ccc(Cl)cc2)cs1`, the inhibition of growth at 50 ppm in assay [1] worked out at 31.8%; in assay [2] it was 0%; in assay [3] it was 46.2%; in assay [4], 0%; in assay [5], 0%; in assay [6] it was 40.8%. In addition, in assay [7], the inhibition of growth at 50 ppm came out at 0%.
Take `N=C1S/C(=C\c2ccccc2[N+](=O)[O-])C(=O)N1c1nc(-c2ccc([N+](=O)[O-])cc2)cs1`: the inhibition of growth at 50 ppm in assay [1] is 24.7%; in assay [2] it was 0%; in assay [3], 16.3%; in assay [4], 3.2%; in assay [5] it was 33.3%; in assay [6], 62.8%. Moreover, the inhibition of growth at 50 ppm in assay [7] was 7.2%.
In the case of `N=C1S/C(=C\c2cccc([N+](=O)[O-])c2)C(=O)N1c1nc(-c2ccc([N+](=O)[O-])cc2)cs1`, the inhibition of growth at 50 ppm in assay [1] amounted to 51.6%; in assay [2], 0%; in assay [3], 0%; in assay [4], 0%; in assay [5], 4.7%; in assay [6], 52.3%. Moreover, the inhibition of growth at 50 ppm in assay [7] was 29.8%.
For the compound `N=C1SCC(=O)N1c1nc(-c2ccc(Cl)cc2Cl)cs1`, the inhibition of growth at 50 ppm in assay [1] was found to be 48.6%; in assay [2], 86.7%; in assay [3] it was 0%; in assay [4], 79.4%; in assay [5], 0%; in assay [6] it was 62.8%. In addition, in assay [7], the inhibition of growth at 50 ppm was 97.2%.
Regarding `N=C1S/C(=C\c2ccccc2[N+](=O)[O-])C(=O)N1c1nc(-c2ccccc2)cs1`, the inhibition of growth at 50 ppm in assay [1] came to 61.9%; in assay [2] it was 0%; in assay [3], 3.8%; in assay [4], 20.2%; in assay [5] it was 64.7%; in assay [6], 54.3%. Also, the inhibition of growth at 50 ppm in assay [7] came to 84.1%.
For the compound `N=C1S/C(=C\c2ccccc2[N+](=O)[O-])C(=O)N1c1nc(-c2cc(F)c(Cl)cc2Cl)cs1`, the inhibition of growth at 50 ppm in assay [1] was found to be 48.5%; in assay [2], 0%; in assay [3], 0%; in assay [4] it was 50.4%; in assay [5], 2%; in assay [6], 49.7%. Also, in assay [7], the inhibition of growth at 50 ppm is 15.2%.
`N=C1S/C(=C\c2cccc([N+](=O)[O-])c2)C(=O)N1c1nc(-c2ccc(Cl)cc2)cs1`: the inhibition of growth at 50 ppm was determined as 61.9% in assay [1]; 0% in assay [2]; 16.3% in assay [3]; 26.5% in assay [4]; 71.3% in assay [5]; 58.8% in assay [6]. Besides, the inhibition of growth at 50 ppm in assay [7] stood at 84.1%.
Regarding `N=C1SCC(=O)N1c1nc(-c2ccc(Cl)cc2)cs1`, the inhibition of growth at 50 ppm was found to be 29.7% in assay [1]; 51.3% in assay [2]; 3.8% in assay [3]; 58.8% in assay [4]; 0% in assay [5]; 52.3% in assay [6]. Further, the inhibition of growth at 50 ppm in assay [7] is 72.4%.
In the case of `N=C1S/C(=C\c2ccccc2Cl)C(=O)N1c1nc(-c2ccc([N+](=O)[O-])cc2)cs1`, the inhibition of growth at 50 ppm in assay [1] came to 28%; in assay [2], 37.1%; in assay [3] it was 28%; in assay [4], 2.1%; in assay [5] it was 60.8%; in assay [6], 42.7%. Moreover, the inhibition of growth at 50 ppm in assay [7] is 0%.
In the case of `N=C1SCC(=O)N1c1nc(-c2ccc([N+](=O)[O-])cc2)cs1`, the inhibition of growth at 50 ppm in assay [1] is 2.2%; in assay [2], 26.7%; in assay [3] it was 8.8%; in assay [4], 38.1%; in assay [5], 0%; in assay [6], 56.2%. For the same compound, the inhibition of growth at 50 ppm in assay [7] was found to be 12.4%.
With `N=C1S/C(=C\c2ccccc2)C(=O)N1c1nc(-c2cc(F)c(Cl)cc2Cl)cs1`, the inhibition of growth at 50 ppm in assay [1] was 38.1%; in assay [2], 0%; in assay [3] it was 0%; in assay [4] it was 4.1%; in assay [5], 28.7%; in assay [6], 47.7%. Further, the inhibition of growth at 50 ppm in assay [7] is 11.5%.
